Measured values from patent US20080009418A1, “Selective Inhibitors” (Alchemia LTD., priority 2004, published 2008).

What was measured:
[1] = target: T1, Human Melanocortin (MC3) (Homo sapiens, UniProt P41968); assay: Radioligand binding, human melanocortin MC3 membranes, FlashPlate, [125I]-NDP-αMSH; settings: compound at 10 μM, [125I]-NDP-αMSH
T1 construct: purchased Perkin Elmer Biosignal
Procedure, shortened: (§1)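 Cloned human receptor membranes were coated onto FlashPlate wells and incubated with radioligand and compound (added from a 0.5 mM DMSO daughter plate) for 1 hour at room temperature in the dark. Scintillation counting gave percent inhibition, with DMSO defining total and reference ligand defining non-specific binding.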

[2] = target: T2, Human κ-Opioid (KOP) (Homo sapiens, UniProt P41145); assay: Radioligand binding, human κ-opioid (KOP) membranes, filtration, [3H]-Diprenorphine; settings: compound at 10 μM, [3H]-Diprenorphine
T2 construct: purchased Perkin Elmer Biosignal
Procedure, shortened: (§2)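 Filtration binding on cloned human receptor membranes (1 Unit/well), [125I]-Substance P for NK1 and [3H]-Diprenorphine for KOP, 1 h at room temperature. Filters PEI-presoaked, washed with cold 50 mM Tris-HCl pH 7.4, counted by scintillation; percent inhibition calculated, reference ligand defining non-specific binding.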

[3] = target: T3, Human melanocortin (MC5) (Homo sapiens, UniProt P33032); assay: Radioligand binding, human melanocortin MC5 membranes, FlashPlate, [125I]-NDP-αMSH; settings: compound at 10 μM, [125I]-NDP-αMSH
T3 construct: purchased Perkin Elmer Biosignal
Procedure, shortened: as §1

[4] = target: T4, Human opioid (ORL1) (Homo sapiens, UniProt P41146); assay: Radioligand binding, human opioid ORL1 membranes, FlashPlate, [125I]-Nociceptin; settings: compound at 10 μM, [125I]-Nociceptin
T4 construct: purchased Perkin Elmer Biosignal
Procedure, shortened: as §1

[5] = target: T5, Human μ-opioid (MOP) (Homo sapiens, UniProt P35372); assay: Radioligand binding, human μ-opioid (MOP) membranes, FlashPlate, [3H]-Naloxone; settings: compound at 10 μM, [3H]-Naloxone
T5 construct: purchased Perkin Elmer Biosignal
Procedure, shortened: as §1

[6] = target: T6, Human δ-opioid (DOP) (Homo sapiens, UniProt P41143); assay: Radioligand binding, human δ-opioid (DOP) membranes, FlashPlate, [3H]-Bremazocine; settings: compound at 10 μM, [3H]-Bremazocine
T6 construct: purchased Perkin Elmer Biosignal
Procedure, shortened: as §1

[7] = target: T7, Human neurokinin (NK1) (Homo sapiens, UniProt P25103); assay: Radioligand binding, human neurokinin NK1 membranes, filtration, [125I]-Substance P; settings: compound at 10 μM, [125I]-Substance P
T7 construct: purchased Perkin Elmer Biosignal
Procedure, shortened: as §2

[8] = target: T8, Mouse urotensin (mUR2) (Mus musculus, UniProt Q8VIH9); assay: Radioligand binding, mouse urotensin mUR2 membranes, FlashPlate, [125I]-Urotensin II; settings: compound at 10 μM, [125I]-Urotensin II
T8 construct: purchased Perkin Elmer Biosignal
T8 sequence (Q8VIH9 1-385): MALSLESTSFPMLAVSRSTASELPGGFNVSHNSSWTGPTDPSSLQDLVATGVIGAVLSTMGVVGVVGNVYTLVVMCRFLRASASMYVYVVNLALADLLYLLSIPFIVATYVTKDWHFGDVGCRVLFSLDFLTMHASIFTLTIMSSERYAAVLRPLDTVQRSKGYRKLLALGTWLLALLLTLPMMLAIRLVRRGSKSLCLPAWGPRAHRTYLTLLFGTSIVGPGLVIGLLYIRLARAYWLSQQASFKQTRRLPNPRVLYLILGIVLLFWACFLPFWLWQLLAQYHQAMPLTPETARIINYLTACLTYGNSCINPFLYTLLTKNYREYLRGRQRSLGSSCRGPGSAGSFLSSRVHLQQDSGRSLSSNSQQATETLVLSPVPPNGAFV
Procedure, shortened: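 Cloned mouse urotensin (mUR2) receptor membranes from Perkin Elmer Biosignal were immobilized in FlashPlate microplates using a proprietary coating. Each well got 19.5 μl buffer, then 0.5 μl of DMSO, reference ligand, or compound. Adding 5 μl of [125I]-Urotensin II, diluted to 5× final concentration in binding buffer, started binding. Plates were sealed with TopSeal-A and incubated 1 hour at room temperature in the dark. Wells were counted for 30 seconds each on a TopCount after a 60-second delay, and percentage inhibition was calculated.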

[9] = target: T9, Human Melanocortin (MC4) (Homo sapiens, UniProt P32245); assay: Radioligand binding, human melanocortin MC4 membranes, FlashPlate, [125I]-NDP-αMSH; settings: compound at 10 μM, [125I]-NDP-αMSH
T9 construct: purchased Perkin Elmer Biosignal
Procedure, shortened: as §1

[10] = target: T10, Human melanin-concentrating hormone (MCH1) (Homo sapiens, UniProt Q99705); assay: Radioligand binding, human melanin-concentrating hormone MCH1 membranes, FlashPlate, [125I]-S36057; settings: compound at 10 μM
T10 construct: purchased Perkin Elmer Biosignal
Procedure, shortened: as §1

[11] = target: T11, Human neuropeptide Y (NPY-Y1) (Homo sapiens, UniProt P25929); assay: Radioligand binding, human neuropeptide Y NPY-Y1 membranes, FlashPlate, [125I]-PYY; settings: compound at 10 μM, [125I]-PYY
T11 construct: purchased Perkin Elmer Biosignal
T11 sequence (P25929 1-384): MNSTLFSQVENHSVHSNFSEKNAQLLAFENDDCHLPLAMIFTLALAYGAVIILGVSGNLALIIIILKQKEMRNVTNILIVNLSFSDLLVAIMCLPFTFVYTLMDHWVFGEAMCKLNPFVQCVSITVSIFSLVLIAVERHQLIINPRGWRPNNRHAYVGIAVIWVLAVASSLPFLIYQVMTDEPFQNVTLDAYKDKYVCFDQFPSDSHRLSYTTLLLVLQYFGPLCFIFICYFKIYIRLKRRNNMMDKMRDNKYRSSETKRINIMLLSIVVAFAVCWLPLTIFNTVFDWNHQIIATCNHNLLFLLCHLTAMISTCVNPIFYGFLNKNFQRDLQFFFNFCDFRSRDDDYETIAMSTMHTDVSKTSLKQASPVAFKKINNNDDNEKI
Procedure, shortened: as §1

T5 sequence (P35372 whole entry): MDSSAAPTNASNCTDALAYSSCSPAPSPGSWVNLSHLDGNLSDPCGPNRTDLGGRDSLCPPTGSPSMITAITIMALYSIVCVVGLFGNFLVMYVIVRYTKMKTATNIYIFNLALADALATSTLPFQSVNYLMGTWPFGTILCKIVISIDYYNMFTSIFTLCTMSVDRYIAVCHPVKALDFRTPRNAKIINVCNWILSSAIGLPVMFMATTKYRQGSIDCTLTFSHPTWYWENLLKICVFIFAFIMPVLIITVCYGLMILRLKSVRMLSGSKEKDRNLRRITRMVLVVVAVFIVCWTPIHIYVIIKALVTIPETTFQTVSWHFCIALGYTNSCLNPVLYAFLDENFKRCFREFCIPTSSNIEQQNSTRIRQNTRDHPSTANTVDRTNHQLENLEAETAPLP
T1 sequence (P41968 whole entry): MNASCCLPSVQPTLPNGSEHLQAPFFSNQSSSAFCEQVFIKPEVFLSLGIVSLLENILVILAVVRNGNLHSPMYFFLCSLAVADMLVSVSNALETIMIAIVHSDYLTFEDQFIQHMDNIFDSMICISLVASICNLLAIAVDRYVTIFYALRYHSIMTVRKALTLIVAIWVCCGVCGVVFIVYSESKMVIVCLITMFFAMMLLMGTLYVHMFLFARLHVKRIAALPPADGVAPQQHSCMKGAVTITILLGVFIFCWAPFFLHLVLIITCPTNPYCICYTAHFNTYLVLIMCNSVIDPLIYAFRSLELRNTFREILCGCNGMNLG
T3 sequence (P33032 whole entry): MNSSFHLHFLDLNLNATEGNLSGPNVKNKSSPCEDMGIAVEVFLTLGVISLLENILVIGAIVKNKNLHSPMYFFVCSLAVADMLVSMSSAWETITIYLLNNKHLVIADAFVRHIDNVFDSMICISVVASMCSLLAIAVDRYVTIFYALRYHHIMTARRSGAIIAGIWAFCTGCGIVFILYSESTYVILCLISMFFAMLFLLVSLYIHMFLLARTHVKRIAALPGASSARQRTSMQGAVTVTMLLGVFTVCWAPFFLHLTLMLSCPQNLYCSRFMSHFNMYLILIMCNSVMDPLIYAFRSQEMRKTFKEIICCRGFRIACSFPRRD
T6 sequence (P41143 whole entry): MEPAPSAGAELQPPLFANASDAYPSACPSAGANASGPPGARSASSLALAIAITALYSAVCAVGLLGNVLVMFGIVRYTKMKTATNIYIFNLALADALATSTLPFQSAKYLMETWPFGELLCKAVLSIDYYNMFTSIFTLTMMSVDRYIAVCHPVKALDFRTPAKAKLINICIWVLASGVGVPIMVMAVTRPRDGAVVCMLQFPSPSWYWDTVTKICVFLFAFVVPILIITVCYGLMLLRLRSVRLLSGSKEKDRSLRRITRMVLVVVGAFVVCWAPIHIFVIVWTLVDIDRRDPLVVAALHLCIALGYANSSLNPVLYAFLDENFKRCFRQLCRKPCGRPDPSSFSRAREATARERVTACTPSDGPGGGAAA
T2 sequence (P41145 whole entry): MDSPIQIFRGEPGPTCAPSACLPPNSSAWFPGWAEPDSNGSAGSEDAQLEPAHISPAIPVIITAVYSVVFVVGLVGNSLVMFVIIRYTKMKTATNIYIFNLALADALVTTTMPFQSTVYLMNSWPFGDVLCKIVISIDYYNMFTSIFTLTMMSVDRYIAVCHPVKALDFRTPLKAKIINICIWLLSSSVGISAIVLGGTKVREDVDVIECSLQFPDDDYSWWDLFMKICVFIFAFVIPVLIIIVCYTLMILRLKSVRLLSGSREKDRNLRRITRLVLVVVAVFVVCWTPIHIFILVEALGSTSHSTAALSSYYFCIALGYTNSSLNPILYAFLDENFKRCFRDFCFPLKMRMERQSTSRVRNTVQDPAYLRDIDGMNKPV
T7 sequence (P25103 whole entry): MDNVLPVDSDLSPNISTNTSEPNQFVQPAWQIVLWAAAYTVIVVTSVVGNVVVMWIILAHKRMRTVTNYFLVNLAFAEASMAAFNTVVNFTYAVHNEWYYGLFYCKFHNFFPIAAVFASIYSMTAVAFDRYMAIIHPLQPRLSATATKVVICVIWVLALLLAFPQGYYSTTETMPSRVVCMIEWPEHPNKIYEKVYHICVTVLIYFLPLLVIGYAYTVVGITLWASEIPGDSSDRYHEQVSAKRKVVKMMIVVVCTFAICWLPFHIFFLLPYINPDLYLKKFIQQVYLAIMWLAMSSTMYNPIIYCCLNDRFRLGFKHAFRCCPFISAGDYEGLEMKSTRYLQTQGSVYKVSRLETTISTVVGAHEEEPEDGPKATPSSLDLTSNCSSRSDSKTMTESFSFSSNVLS
T9 sequence (P32245 whole entry): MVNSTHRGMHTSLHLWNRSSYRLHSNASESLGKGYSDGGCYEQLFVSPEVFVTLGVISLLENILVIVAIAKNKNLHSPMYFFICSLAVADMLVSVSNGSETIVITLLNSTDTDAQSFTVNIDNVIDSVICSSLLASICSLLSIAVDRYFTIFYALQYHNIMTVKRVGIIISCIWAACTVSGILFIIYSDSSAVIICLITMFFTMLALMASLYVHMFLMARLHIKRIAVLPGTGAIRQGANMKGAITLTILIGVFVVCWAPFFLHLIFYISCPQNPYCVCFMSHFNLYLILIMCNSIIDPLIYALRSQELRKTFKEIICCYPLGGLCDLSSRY
T4 sequence (P41146 whole entry): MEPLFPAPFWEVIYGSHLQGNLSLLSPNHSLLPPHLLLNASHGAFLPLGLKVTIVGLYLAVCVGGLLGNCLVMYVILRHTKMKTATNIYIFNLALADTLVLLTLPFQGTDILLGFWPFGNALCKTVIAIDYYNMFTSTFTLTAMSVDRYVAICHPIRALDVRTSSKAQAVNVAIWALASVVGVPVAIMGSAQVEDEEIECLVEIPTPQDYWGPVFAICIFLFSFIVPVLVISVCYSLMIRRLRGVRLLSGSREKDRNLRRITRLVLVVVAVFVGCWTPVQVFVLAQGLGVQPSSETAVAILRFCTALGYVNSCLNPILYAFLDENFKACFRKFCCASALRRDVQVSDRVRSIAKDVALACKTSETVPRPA
T10 sequence (Q99705 whole entry): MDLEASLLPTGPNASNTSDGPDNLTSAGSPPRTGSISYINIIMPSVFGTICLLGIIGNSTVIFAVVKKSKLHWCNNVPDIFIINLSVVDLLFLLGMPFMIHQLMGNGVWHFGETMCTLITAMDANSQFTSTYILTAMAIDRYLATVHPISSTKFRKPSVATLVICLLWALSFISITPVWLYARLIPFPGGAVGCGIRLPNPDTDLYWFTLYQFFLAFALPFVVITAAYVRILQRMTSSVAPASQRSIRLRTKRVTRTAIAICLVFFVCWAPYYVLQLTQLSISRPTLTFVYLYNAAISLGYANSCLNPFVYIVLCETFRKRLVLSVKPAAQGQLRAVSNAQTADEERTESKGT

NCCC(=O)NC1C(OCc2ccc(Cl)cc2)OC(COCc2ccccc2)C(O)C1OCc1ccc2ccccc2c1 (single isomer, unassigned) [compound 480]
A3: inhibition of radioligand binding, human melanocortin (MC3) [1]: − (“−” indicates less than 50% inhibition at 10 μM) | A2: inhibition of radioligand binding, human κ-opioid (KOP) [2]: − (“−” indicates less than 50% inhibition at 10 μM) | A5: inhibition of radioligand binding, human melanocortin (MC5) ([3]; 10 µM): + (“+” indicates greater than 50% inhibition at 10 μM) | A10: inhibition of radioligand binding, human opioid (ORL1) [4]: − (“−” indicates less than 50% inhibition at 10 μM) | A7: inhibition of radioligand binding, human μ-opioid (MOP) ([5]; 10 µM): + (“+” indicates greater than 50% inhibition at 10 μM) | A1: inhibition of radioligand binding, human δ-opioid (DOP) [6]: − (“−” indicates less than 50% inhibition at 10 μM) | A8: inhibition of radioligand binding, human neurokinin (NK1) [7]: + (“+” indicates greater than 50% inhibition at 10 μM) | A11: inhibition of radioligand binding, mouse urotensin (mUR2) [8]: − (“−” indicates less than 50% inhibition at 10 μM) | A4: inhibition of radioligand binding, human melanocortin (MC4) ([9]; 10 µM): + (“+” indicates greater than 50% inhibition at 10 μM) | A6: inhibition of radioligand binding, human melanin-concentrating hormone (MCH1) ([10]; [125I]-S36057, 10 µM): + (“+” indicates greater than 50% inhibition at 10 μM) | A9: inhibition of radioligand binding, human neuropeptide Y (NPY-Y1) [11]: − (“−” indicates less than 50% inhibition at 10 μM)

CSC1O[C@H](COCc2ccc(Cl)cc2)[C@@H](O)[C@@H](OCc2ccc(Cl)cc2)[C@H]1NC(=O)CCCN (stereo partly shown) [compound 273]
A3: inhibition of radioligand binding ([1]; FlashPlate): − (“−” indicates less than 50% inhibition at 10 μM) | A2: inhibition of radioligand binding ([2]; filtration): − (“−” indicates less than 50% inhibition at 10 μM) | A5: inhibition of radioligand binding ([3]; FlashPlate): − (“−” indicates less than 50% inhibition at 10 μM) | A10: inhibition of radioligand binding ([4]; FlashPlate): − (“−” indicates less than 50% inhibition at 10 μM) | A7: inhibition of radioligand binding ([5]; FlashPlate): − (“−” indicates less than 50% inhibition at 10 μM) | A1: inhibition of radioligand binding ([6]; FlashPlate): − (“−” indicates less than 50% inhibition at 10 μM) | A8: inhibition of radioligand binding ([7]; filtration): + (“+” indicates greater than 50% inhibition at 10 μM) | A11: inhibition of radioligand binding ([8]; FlashPlate): − (“−” indicates less than 50% inhibition at 10 μM) | A4: inhibition of radioligand binding ([9]; FlashPlate): − (“−” indicates less than 50% inhibition at 10 μM) | A6: inhibition of radioligand binding ([10]; [125I]-S36057, FlashPlate): − (“−” indicates less than 50% inhibition at 10 μM) | A9: inhibition of radioligand binding ([11]; FlashPlate): − (“−” indicates less than 50% inhibition at 10 μM)
